{
  "source": "patent US9040528B2",
  "about": "“Chemical compounds 542” (AstraZeneca AB, priority 2008, dated 2015)",
  "data": [
    {"target": "Escherichia coli DNA gyrase A/B tetramer (Escherichia coli (strain K12), UniProt P0AES4+P0AES6)", "assay": "DNA gyrase supercoiling activity fluorescence polarisation assay", "assay_type": "biochemical", "conditions": "not given", "outline": "(§1)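 Supercoiling reactions quenched with 40 nM 5′-BODIPY-FL triplex-forming oligonucleotide probe in pH 3.5 NaCl/sodium acetate buffer; after 60 min, fluorescence anisotropy read (ex 485/em 535 nm). IC50 by nonlinear regression, normalised to 0.8% DMSO (100% activity) and 5 μM ciprofloxacin (0% activity).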", "units": {"IC50": "nM"}, "values": [
      {"smiles": "C[C@@H]1CN2c3c(cc4c(C(N)=O)noc4c3F)CC3(C(=O)NC(=O)NC3=O)[C@H]2[C@H](C)O1", "note": "(relative stereo) [Example 142, (2R,4S,4aS)-rel-11-fluoro-2,4-dimethyl-2′,4′,6′-trioxo-2,2′,3′,4,4a,4′,6,6′-octahydro-^1H,1′H-spiro[isoxazolo[4,5-g][1,4]oxazino[4,3-a]quinoline-5,5′-pyrimidine]-8-carboxamide]", "IC50": 300}
    ]},
    {"target": "Escherichia coli DNA gyrase A/B tetramer (Escherichia coli (strain K12), UniProt P0AES4+P0AES6)", "assay": "DNA gyrase supercoiling activity fluorescence polarisation assay", "assay_type": "biochemical", "conditions": "5 nM enzyme, relaxed plasmid, 0.3 mM ATP, ambient temperature; read-out: E. coli DNA gyrase supercoiling IC50", "outline": "as §1", "units": {"IC50": "nM"}, "values": [
      {"smiles": "CCOC(=O)c1noc2c(F)c3c(cc12)CC1(C(=O)NC(=O)NC1=O)[C@H]1[C@H](C)O[C@H](C)CN31", "note": "(relative stereo) [Example 134, (2R,4S,4aS)-rel-ethyl 11-fluoro-2,4-dimethyl-2′,4′,6′-trioxo-2,2′,3′,4,4a,4′,6,6′-octahydro-1H,1′H-spiro[isoxazolo[4,5-g][1,4]oxazino[4,3-a]quinoline-5,5′-pyrimidine]-8-carboxylate]", "IC50": 1000},
      {"smiles": "C[C@@H]1CN2c3c(cc4c(C(=O)N5CCOCC5)noc4c3F)CC3(C(=O)NC(=O)NC3=O)[C@H]2[C@H](C)O1", "note": "(relative stereo) [Example 135, (2R,4S,4aS)-rel-11-fluoro-2,4-dimethyl-8-(morpholine-4-carbonyl)-2,4,4a,6-tetrahydro-1H,1′H-spiro[isoxazolo[4,5-g][1,4]oxazino[4,3-a]quinoline-5,5′-pyrimidine]-2′,4′,6′(3′H)-trione]", "IC50": 3300},
      {"smiles": "C[C@@H]1CN2c3c(cc4c(C(=O)N(C)C)noc4c3F)CC3(C(=O)NC(=O)NC3=O)[C@H]2[C@H](C)O1", "note": "(relative stereo) [Example 136, (2R,4S,4aS)-rel-11-fluoro-N,N,2,4-tetramethyl-2′,4′,6′-trioxo-2,2′,3′,4,4a,4′,6,6′-octahydro-1H,1′H-spiro[isoxazolo[4,5-g][1,4]oxazino[4,3-a]quinoline-5,5′-pyrimidine]-8-carboxamide]", "IC50": 2800},
      {"smiles": "CON(C)C(=O)c1noc2c(F)c3c(cc12)CC1(C(=O)NC(=O)NC1=O)[C@H]1[C@H](C)O[C@H](C)CN31", "note": "(relative stereo) [Example 137, (2R,4S,4aS)-rel-11-fluoro-N-methoxy-N,2,4-trimethyl-2′,4′,6′-trioxo-2,2′,3′,4,4a,4′,6,6′-octahydro-1H,1′H-spiro[isoxazolo[4,5-g][1,4]oxazino[4,3-a]quinoline-5,5′-pyrimidine]-8-carboxamide]", "IC50": 2300},
      {"smiles": "CCN(C)C(=O)c1noc2c(F)c3c(cc12)CC1(C(=O)NC(=O)NC1=O)[C@H]1[C@H](C)O[C@H](C)CN31", "note": "(relative stereo) [Example 139, (2R,4S,4aS)-rel-N-ethyl-11-fluoro-N,2,4-trimethyl-2′,4′,6′-trioxo-2,2′,3′,4,4a,4′,6,6′-octahydro-1H,1′H-spiro[isoxazolo[4,5-g][1,4]oxazino[4,3-a]quinoline-5,5′-pyrimidine]-8-carboxamide]", "IC50": 7600},
      {"smiles": "CNC(=O)c1noc2c(F)c3c(cc12)CC1(C(=O)NC(=O)NC1=O)[C@H]1[C@H](C)O[C@H](C)CN31", "note": "(relative stereo) [Example 140, (2R,4S,4aS)-rel-11-fluoro-N,2,4-trimethyl-2′,4′,6′-trioxo-2,2′,3′,4,4a,4′,6,6′-octahydro-1H,1′H-spiro[isoxazolo[4,5-g][1,4]oxazino[4,3-a]quinoline-5,5′-pyrimidine]-8-carboxamide]", "IC50": 1100},
      {"smiles": "C[C@@H]1CN2c3c(cc4c(C(=O)N5CCN(C)C(=O)C5)noc4c3F)CC3(C(=O)NC(=O)NC3=O)[C@H]2[C@H](C)O1", "note": "(relative stereo) [Example 141, (2R,4S,4aS)-rel-11-fluoro-2,4-dimethyl-8-(4-methyl-3-oxopiperazine-1-carbonyl)-2,4,4a,6-tetrahydro-1H,1′H-spiro[isoxazolo[4,5-g][1,4]oxazino[4,3-a]quinoline-5,5′-pyrimidine]-2′,4′,6′(3′H)-trione]", "IC50": 4900},
      {"smiles": "COCCNC(=O)c1noc2c(F)c3c(cc12)CC1(C(=O)NC(=O)NC1=O)[C@H]1[C@H](C)O[C@H](C)CN31", "note": "(relative stereo) [Example 143, (2R,4S,4aS)-rel-11-fluoro-N-(2-methoxyethyl)-2,4-dimethyl-2′,4′,6′-trioxo-2,2′,3′,4,4a,4′,6,6′-octahydro-1H,1′H-spiro[isoxazolo[4,5-g][1,4]oxazino[4,3-a]quinoline-5,5′-pyrimidine]-8-carboxamide]", "IC50": 1000},
      {"smiles": "C[C@@H]1CN2c3c(cc4c(C(=O)NC(C)(C)C)noc4c3F)CC3(C(=O)NC(=O)NC3=O)[C@H]2[C@H](C)O1", "note": "(relative stereo) [Example 144, (2R,4S,4aS)-rel-N-tert-butyl-11-fluoro-2,4-dimethyl-2′,4′,6′-trioxo-2,2′,3′,4,4a,4′,6,6′-octahydro-1H,1′H-spiro[isoxazolo[4,5-g][1,4]oxazino[4,3-a]quinoline-5,5′-pyrimidine]-8-carboxamide]", "IC50": 2900},
      {"smiles": "C[C@@H]1CN2c3c(cc4c(C(=O)N5CCS(=O)(=O)CC5)noc4c3F)CC3(C(=O)NC(=O)NC3=O)[C@H]2[C@H](C)O1", "note": "(relative stereo) [Example 145, (2R,4S,4aS)-rel-8-[(1,1-dioxidothiomorpholin-4-yl)carbonyl]-11-fluoro-2,4-dimethyl-1,2,4,4a-tetrahydro-2′H,6H-spiro[isoxazolo[4,5-g][1,4]oxazino[4,3-a]quinoline-5,5′-pyrimidine]-2′,4′,6′(1′H,3′H)-trione]", "IC50": 5200},
      {"smiles": "C[C@@H]1CN2c3c(cc4c(C(=O)NC5CCOCC5)noc4c3F)CC3(C(=O)NC(=O)NC3=O)[C@H]2[C@H](C)O1", "note": "(relative stereo) [Example 146, (2R,4S,4aS)-rel-11-fluoro-2,4-dimethyl-2′,4′,6′-trioxo-N-(tetrahydro-2H-pyran-4-yl)-2,2′,3′,4,4a,4′,6,6′-octahydro-1H,1′H-spiro[isoxazolo[4,5-g][1,4]oxazino[4,3-a]quinoline-5,5′-pyrimidine]-8-carboxamide]", "IC50": 4900},
      {"smiles": "CC(C)NC(=O)c1noc2c(F)c3c(cc12)CC1(C(=O)NC(=O)NC1=O)[C@H]1[C@H](C)O[C@H](C)CN31", "note": "(relative stereo) [Example 147, (2R,4S,4aS)-rel-11-fluoro-N-isopropyl-2,4-dimethyl-2′,4′,6′-trioxo-2,2′,3′,4,4a,4′,6,6′-octahydro-1H,1′H-spiro[isoxazolo[4,5-g][1,4]oxazino[4,3-a]quinoline-5,5′-pyrimidine]-8-carboxamide]", "IC50": 3900},
      {"smiles": "C[C@@H]1CN2c3c(cc4c(-c5ncccn5)noc4c3F)CC3(C(=O)NC(=O)NC3=O)[C@H]2[C@H](C)O1", "note": "(relative stereo) [Example 148, (2R,4S,4aS)-rel-11-fluoro-2,4-dimethyl-8-(pyrimidin-2-yl)-1,2,4,4a-tetrahydro-2′H,6H-spiro[1,4-oxazino[4,3-a][1,2]oxazolo[4,5-g]quinoline-5,5′-pyrimidine]-2′,4′,6′(1′H,3′H)-trione]", "IC50": 900},
      {"smiles": "Cc1noc2c(F)c3c(cc12)CC1(C(=O)NC(=O)NC1=O)[C@H]1[C@H](C)O[C@H](C(F)(F)F)CN31", "note": "(relative stereo) [Example 149, (2S,4S,4aS)-rel-11-fluoro-4,8-dimethyl-2-(trifluoromethyl)-1,2,4,4a-tetrahydro-2′H,6H-spiro[isoxazolo[4,5-g][1,4]oxazino[4,3-a]quinoline-5,5′-pyrimidine]-2′,4′,6′(1′H,3′H)-trione]", "IC50": 4400},
      {"smiles": "C[C@@H]1CN2c3c(cc4c(C(=O)NC5CC5)noc4c3F)CC3(C(=O)NC(=O)NC3=O)[C@H]2[C@H](C)O1", "note": "(relative stereo) [Example 150, (2R,4S,4aS)-rel-N-cyclopropyl-11-fluoro-2,4-dimethyl-2′,4′,6′-trioxo-2,2′,3′,4,4a,4′,6,6′-octahydro-1H,1′H-spiro[isoxazolo[4,5-g][1,4]oxazino[4,3-a]quinoline-5,5′-pyrimidine]-8-carboxamide]", "IC50": 1300},
      {"smiles": "COC1CCN(C(=O)c2noc3c(F)c4c(cc23)CC2(C(=O)NC(=O)NC2=O)[C@H]2[C@H](C)O[C@H](C)CN42)CC1", "note": "(relative stereo) [Example 151, (2R,4S,4aS)-rel-11-fluoro-8-(4-methoxypiperidine-1-carbonyl)-2,4-dimethyl-2,4,4a,6-tetrahydro-1H,1′H-spiro[isoxazolo[4,5-g][1,4]oxazino[4,3-a]quinoline-5,5′-pyrimidine]-2′,4′,6′(3′H)-trione]", "IC50": 5500},
      {"smiles": "C[C@@H]1CN2c3c(cc4c(C(=O)NCC5CC5)noc4c3F)CC3(C(=O)NC(=O)NC3=O)[C@H]2[C@H](C)O1", "note": "(relative stereo) [Example 152, (2R,4S,4aS)-rel-N-(cyclopropylmethyl)-11-fluoro-2,4-dimethyl-2′,4′,6′-trioxo-2,2′,3′,4,4a,4′,6,6′-octahydro-1H,1′H-spiro[isoxazolo[4,5-g][1,4]oxazino[4,3-a]quinoline-5,5′-pyrimidine]-8-carboxamide]", "IC50": 2100},
      {"smiles": "C[C@@H]1CN2c3c(cc4c(C(=O)N5CCCCO5)noc4c3F)CC3(C(=O)NC(=O)NC3=O)[C@H]2[C@H](C)O1", "note": "(relative stereo) [Example 153, (2R,4S,4aS)-rel-11-fluoro-2,4-dimethyl-8-(1,2-oxazinan-2-ylcarbonyl)-1,2,4,4a-tetrahydro-2′H,6H-spiro[isoxazolo[4,5-g][1,4]oxazino[4,3-a]quinoline-5,5′-pyrimidine]-2′,4′,6′(1′H,3′H)-trione]", "IC50": 3700},
      {"smiles": "C[C@@H]1CN2c3c(cc4c(C(=O)NCc5cccs5)noc4c3F)CC3(C(=O)NC(=O)NC3=O)[C@H]2[C@H](C)O1", "note": "(relative stereo) [Example 154, (2R,4S,4aS)-rel-11-fluoro-2,4-dimethyl-2′,4′,6′-trioxo-N-(thiophen-2-ylmethyl)-2,2′,3′,4,4a,4′,6,6′-octahydro-1H,1′H-spiro[isoxazolo[4,5-g][1,4]oxazino[4,3-a]quinoline-5,5′-pyrimidine]-8-carboxamide]", "IC50": 1500}
    ]}
  ]
}
